Data taken from PubChem BioAssay AID1963971 (Molecular Pharmacology Branch, DTP, NCI, 2024).
“And” between values parts separate entries of the source, which are not always exact repeats. Identical values can stand only once.

Tested on: 953936-095-R-J2-PDC spheroids with HUVEC/MSC, viability
Assay: Anticancer human tumor 953936-095-R-J2-PDC patient-derived cervical squamous cell carcinoma cell line growth inhibition [PI3K]
Details: for viability, T/C: stronger effect = lower value
In short: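 Tumor cells grown as multi-cell spheroids with HUVEC endothelial cells and MSC fibroblast-like stroma were treated with targeted agents combined with inavolisib, alpelisib, duvelisib or copanlisib. Doses fell in half-log steps from near clinical Cmax, else from 10 microM. Viability was measured.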

[1] = curve of first compound, second compound 0.0316 µM
[2] = curve of first compound, second compound 0.1 µM
[3] = curve of first compound, second compound 0.316 µM
[4] = curve of first compound, second compound 1 µM
[5] = second compound 0.0316 µM, first compound 0.0316 µM
[6] = second compound 0.0316 µM, first compound 0.1 µM
[7] = second compound 0.1 µM, first compound 0.0316 µM
[8] = second compound 0.1 µM, first compound 0.1 µM
[9] = second compound 0.316 µM, first compound 0.0316 µM
[10] = second compound 0.316 µM, first compound 0.1 µM
[11] = second compound 1 µM, first compound 0.0316 µM
[12] = second compound 1 µM, first compound 0.1 µM
[13] = curve of first compound, second compound 0.00316 µM
[14] = curve of first compound, second compound 0.01 µM
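Also: spheroids exposed to compounds for seven days before read-out.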

`C[C@@H](NC(=O)c1ncnc(N)c1Cl)c1ncc(C(=O)Nc2cc(C(F)(F)F)c(Cl)cn2)s1` + Cc1nc(NC(=O)N2CCCC2C(N)=O)sc1-c1ccnc(C(C)(C)C(F)(F)F)c1 gave an IC50 [1] of over 10000 nM, an IC50 [2] of over 10000 nM and an IC50 [3] of over 10000 nM. For the same compound, the IC50 [4] was 192 nM, the IC50 (curve of first compound, second compound 3.16 µM) was under 31.6 nM and the IC50 (curve of first compound, second compound 10 µM) was under 31.6 nM. The viability, T/C [5] was 91.4%, the viability, T/C [6] was 92.8% and the viability, T/C (second compound 0.0316 µM, first compound 0.316 µM) was 101%. For the same compound, the viability, T/C (second compound 0.0316 µM, first compound 1 µM) was 97.8%, the viability, T/C (second compound 0.0316 µM, first compound 3.16 µM) was 114% and the viability, T/C (second compound 0.0316 µM, first compound 10 µM) was 92.1%. It also gave a viability, T/C [7] of 84.7%, a viability, T/C [8] of 86% and a viability, T/C (second compound 0.1 µM, first compound 0.316 µM) of 87%. The viability, T/C (second compound 0.1 µM, first compound 1 µM) was 89.4%, the viability, T/C (second compound 0.1 µM, first compound 3.16 µM) was 84.1% and the viability, T/C (second compound 0.1 µM, first compound 10 µM) was 81.2%. For the same compound, the viability, T/C [9] was 66.5%, the viability, T/C [10] was 69.3% and the viability, T/C (second compound 0.316 µM, first compound 0.316 µM) was 65.1%. For the same compound, the viability, T/C (second compound 0.316 µM, first compound 1 µM) was 72%, the viability, T/C (second compound 0.316 µM, first compound 3.16 µM) was 67% and the viability, T/C (second compound 0.316 µM, first compound 10 µM) was 71.3%. The viability, T/C [11] was 53.3%, the viability, T/C [12] was 49.1% and the viability, T/C (second compound 1 µM, first compound 0.316 µM) was 47.2%. It also gave a viability, T/C (second compound 1 µM, first compound 1 µM) of 49.9%, a viability, T/C (second compound 1 µM, first compound 3.16 µM) of 49.5% and a viability, T/C (second compound 1 µM, first compound 10 µM) of 45.2%. It also gave a viability, T/C (second compound 3.16 µM, first compound 0.0316 µM) of 28.2%, a viability, T/C (second compound 3.16 µM, first compound 0.1 µM) of 28.7% and a viability, T/C (second compound 3.16 µM, first compound 0.316 µM) of 27.6%. For the same compound, the viability, T/C (second compound 3.16 µM, first compound 1 µM) was 29%, the viability, T/C (second compound 3.16 µM, first compound 3.16 µM) was 31% and the viability, T/C (second compound 3.16 µM, first compound 10 µM) was 27.4%. The viability, T/C (second compound 10 µM, first compound 0.0316 µM) was 13.3%, the viability, T/C (second compound 10 µM, first compound 0.1 µM) was 14.4% and the viability, T/C (second compound 10 µM, first compound 0.316 µM) was 15%. It also gave a viability, T/C (second compound 10 µM, first compound 1 µM) of 17%, a viability, T/C (second compound 10 µM, first compound 3.16 µM) of 14.9% and a viability, T/C (second compound 10 µM, first compound 10 µM) of 11.6%.

In the case of `Cn1cnc2c(F)c(Nc3ccc(Br)cc3Cl)c(C(=O)NOCCO)cc21`, the viability, T/C (compound 0.00949 µM) is reported as 90.5% (2×) and 83.8% and 88.8%, the viability, T/C (compound 0.03 µM) is reported as 81.4% [middle of 4 runs] and the viability, T/C (compound 0.0949 µM) is reported as 72.3% [middle of 4 runs]. For the same compound, the viability, T/C (compound 0.3 µM) was 66% [middle of 4 runs], the viability, T/C (compound 0.949 µM) was 54.8% [middle of 4 runs] and the viability, T/C (compound 3 µM) was 37.9% [middle of 4 runs]. For the same compound, the IC50 (curve of compound) was 1.01 µM [middle of 4 runs].

In the case of `Cn1ncnc1[C@H]1c2n[nH]c(=O)c3cc(F)cc(c23)N[C@@H]1c1ccc(F)cc1` + COc1c(OCCCN2CCOCC2)ccc2c3n(c(=NC(=O)c4cnc(N)nc4)nc12)CCN3, the IC50 [13] is reported as over 100 nM, the IC50 [14] is reported as over 100 nM and the IC50 [1] is reported as under 0.316 nM. For the same compound, the IC50 [2] was under 0.316 nM, the IC50 [3] was under 0.316 nM and the IC50 [4] was under 0.316 nM. The viability, T/C (second compound 0.00316 µM, first compound 0.000316 µM) was 83%, the viability, T/C (second compound 0.00316 µM, first compound 0.001 µM) was 102% and the viability, T/C (second compound 0.00316 µM, first compound 0.00316 µM) was 93.9%. The viability, T/C (second compound 0.00316 µM, first compound 0.01 µM) was 85.2%, the viability, T/C (second compound 0.00316 µM, first compound 0.0316 µM) was 81.6% and the viability, T/C (second compound 0.00316 µM, first compound 0.1 µM) was 78.5%. The viability, T/C (second compound 0.01 µM, first compound 0.000316 µM) was 71%, the viability, T/C (second compound 0.01 µM, first compound 0.001 µM) was 85.1% and the viability, T/C (second compound 0.01 µM, first compound 0.00316 µM) was 81.1%. The viability, T/C (second compound 0.01 µM, first compound 0.01 µM) was 72.1%, the viability, T/C (second compound 0.01 µM, first compound 0.0316 µM) was 67.3% and the viability, T/C (second compound 0.01 µM, first compound 0.1 µM) was 68.2%. The viability, T/C (second compound 0.0316 µM, first compound 0.000316 µM) was 44.6%, the viability, T/C (second compound 0.0316 µM, first compound 0.001 µM) was 39.1% and the viability, T/C (second compound 0.0316 µM, first compound 0.00316 µM) was 41%. It also gave a viability, T/C (second compound 0.0316 µM, first compound 0.01 µM) of 43%, a viability, T/C [5] of 39.3% and a viability, T/C [6] of 35.8%. The viability, T/C (second compound 0.1 µM, first compound 0.000316 µM) was 19%, the viability, T/C (second compound 0.1 µM, first compound 0.001 µM) was 18.1% and the viability, T/C (second compound 0.1 µM, first compound 0.00316 µM) was 18.2%. It also gave a viability, T/C (second compound 0.1 µM, first compound 0.01 µM) of 18.9%, a viability, T/C [7] of 19.9% and a viability, T/C [8] of 17.4%. For the same compound, the viability, T/C (second compound 0.316 µM, first compound 0.000316 µM) was 6.63%, the viability, T/C (second compound 0.316 µM, first compound 0.001 µM) was 6.64% and the viability, T/C (second compound 0.316 µM, first compound 0.00316 µM) was 7.07%. For the same compound, the viability, T/C (second compound 0.316 µM, first compound 0.01 µM) was 7.8%, the viability, T/C [9] was 6.66% and the viability, T/C [10] was 5.37%. For the same compound, the viability, T/C (second compound 1 µM, first compound 0.000316 µM) was 1.68%, the viability, T/C (second compound 1 µM, first compound 0.001 µM) was 1.6% and the viability, T/C (second compound 1 µM, first compound 0.00316 µM) was 1.91%. The viability, T/C (second compound 1 µM, first compound 0.01 µM) was 1.67%, the viability, T/C [11] was 1.93% and the viability, T/C [12] was 1.28%.

Work on `Cn1cnc2c(F)c(Nc3ccc(Br)cc3Cl)c(C(=O)NOCCO)cc21` + COc1c(OCCCN2CCOCC2)ccc2c3n(c(=NC(=O)c4cnc(N)nc4)nc12)CCN3 yielded an IC50 [13] of 370 nM, an IC50 [14] of 81 nM and an IC50 [1] of under 9.49 nM. It also gave an IC50 [2] of under 9.49 nM, an IC50 [3] of under 9.49 nM and an IC50 [4] of under 9.49 nM. For the same compound, the viability, T/C (second compound 0.00316 µM, first compound 0.00949 µM) was 65.8%, the viability, T/C (second compound 0.00316 µM, first compound 0.03 µM) was 69.6% and the viability, T/C (second compound 0.00316 µM, first compound 0.0949 µM) was 52%. The viability, T/C (second compound 0.00316 µM, first compound 0.3 µM) was 59.1%, the viability, T/C (second compound 0.00316 µM, first compound 0.949 µM) was 36.6% and the viability, T/C (second compound 0.00316 µM, first compound 3 µM) was 25.4%. The viability, T/C (second compound 0.01 µM, first compound 0.00949 µM) was 63.4%, the viability, T/C (second compound 0.01 µM, first compound 0.03 µM) was 58.8% and the viability, T/C (second compound 0.01 µM, first compound 0.0949 µM) was 45.9%. It also gave a viability, T/C (second compound 0.01 µM, first compound 0.3 µM) of 42.1%, a viability, T/C (second compound 0.01 µM, first compound 0.949 µM) of 26.2% and a viability, T/C (second compound 0.01 µM, first compound 3 µM) of 18.3%. The viability, T/C (second compound 0.0316 µM, first compound 0.00949 µM) was 36.7%, the viability, T/C (second compound 0.0316 µM, first compound 0.03 µM) was 33.1% and the viability, T/C (second compound 0.0316 µM, first compound 0.0949 µM) was 19.7%. It also gave a viability, T/C (second compound 0.0316 µM, first compound 0.3 µM) of 15.4%, a viability, T/C (second compound 0.0316 µM, first compound 0.949 µM) of 7.92% and a viability, T/C (second compound 0.0316 µM, first compound 3 µM) of 4.93%. The viability, T/C (second compound 0.1 µM, first compound 0.00949 µM) was 12.6%, the viability, T/C (second compound 0.1 µM, first compound 0.03 µM) was 8.91% and the viability, T/C (second compound 0.1 µM, first compound 0.0949 µM) was 5.78%. The viability, T/C (second compound 0.1 µM, first compound 0.3 µM) was 3.64%, the viability, T/C (second compound 0.1 µM, first compound 0.949 µM) was 2.7% and the viability, T/C (second compound 0.1 µM, first compound 3 µM) was 0.27%. For the same compound, the viability, T/C (second compound 0.316 µM, first compound 0.00949 µM) was 3.5%, the viability, T/C (second compound 0.316 µM, first compound 0.03 µM) was 2.08% and the viability, T/C (second compound 0.316 µM, first compound 0.0949 µM) was 1.09%. The viability, T/C (second compound 0.316 µM, first compound 0.3 µM) was 0.45%, the viability, T/C (second compound 0.316 µM, first compound 0.949 µM) was 0.15% and the viability, T/C (second compound 0.316 µM, first compound 3 µM) was 0.17%. For the same compound, the viability, T/C (second compound 1 µM, first compound 0.00949 µM) was 0.66%, the viability, T/C (second compound 1 µM, first compound 0.03 µM) was 0.31% and the viability, T/C (second compound 1 µM, first compound 0.0949 µM) was 0.21%. It also gave a viability, T/C (second compound 1 µM, first compound 0.3 µM) of 0.16%, a viability, T/C (second compound 1 µM, first compound 0.949 µM) of 0.15% and a viability, T/C (second compound 1 µM, first compound 3 µM) of 0.2%.
